Laboratory results from PubChem BioAssay (NCI).
Several values for one entry are separate records, joined by “and”; a condition that tells them apart may be missing. Identical values can stand only once.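 The compound was tested at five concentrations on cells cultured in 96-well plates, with a 48-hour exposure period. At the GI50, growth is halved. TGI is the concentration that stops growth completely.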

Experiments:
Assay in all cases: growth of human tumour cells (NCI), 48 h
DU-145 prostate = tested on: DU-145 prostate
MDA-MB-435 = tested on: MDA-MB-435
BT-549 breast = tested on: BT-549 breast
HS 578T breast = tested on: HS 578T breast
NCI/ADR-RES ovarian = tested on: NCI/ADR-RES ovarian
MDA-MB-231 breast = tested on: MDA-MB-231 breast

Row | SMILES | TGI (DU-145 prostate) | TGI (MDA-MB-435) | TGI (BT-549 breast) | TGI (HS 578T breast) | TGI (NCI/ADR-RES ovarian) | TGI (MDA-MB-231 breast) | GI50 (DU-145 prostate) | GI50 (MDA-MB-435) | GI50 (BT-549 breast) | GI50 (HS 578T breast) | GI50 (NCI/ADR-RES ovarian) [µM] | GI50 (MDA-MB-231 breast)
1 | CCCCCCCC(=O)OC[n+]1cccc(-c2c(COC(=O)NC(C)C)c(COC(=O)NC(C)C)c3n2CCC3)c1 | > 100 µM | > 100 µM | > 100 µM | > 100 µM | > 100 µM | > 100 µM | – | – | – | – | – | –
2 | O=C(Cc1csc2nc(-c3ccc(Br)cc3)cn12)N/N=C/c1ccccc1O | 13.9 µM | 13.6 µM | 22.6 µM | 42.3 µM | 6.83 µM | 17 µM | 2.89 µM | 3.33 µM | 10.1 µM | 13.4 µM | 2.53 | 3.27 µM
3 | N#CC(C#N)=C/C=C/c1ccccc1[N+](=O)[O-] | > 10 µM | – | – | > 10 µM | 4.84 µM | 7.01 µM | – | – | – | – | – | –
4 | c1ccc(-c2nc3ccccc3[nH]2)c(OCCCCCOc2ccccc2-c2nc3ccccc3[nH]2)c1 | 14.8 µM | 29.3 µM | 33.3 µM | 41 µM | 33.3 µM | 29.3 µM | 3.82 µM | 11.3 µM | 13.5 µM | 15.4 µM | 5.74 | 12.2 µM
5 | COc1ccc2cc1Oc1ccc(cc1)CC1c3c(cc(OC)c4c3Oc3cc5c(cc3O4)CCNC5C2)CCN1C (stereo unspecified) | 2.87 µM | 3.43 µM and 2.9 µM | 8.01 µM | 4.71 µM and 4.59 µM | 3.62 µM and 3.19 µM | 3.35 µM | 1.54 µM | 1.56 µM | – | 1.98 µM | 1.55 | 1.73 µM
6 | Cc1cn([C@H]2CN(O)C[C@@H](CO)O2)c(=O)[nH]c1=O | > 100 µM | > 100 µM | > 100 µM | > 100 µM | – | > 100 µM | – | – | – | – | – | –
7 | COc1ccc(C2=NOC3=c4ccccc4=CSC3=C2c2ccccc2)cc1 | > 100 µM | > 100 µM | 77 µM | > 100 µM | > 100 µM | 76 µM | 19.8 µM | 42.9 µM | 24 µM | 47.4 µM | 41.7 | 20.3 µM
8 | COc1ccccc1CNCCCN1C(=O)c2ccc3c4c(ccc(c24)C1=O)C(=O)N(CCCNCCCCN)C3=O | 2.35 µM | 0.397 µM | 2.59 µM | 5.91 µM | 22.8 µM | 2.78 µM | 0.664 µM | 0.184 µM | 1.21 µM | 1.14 µM | 3.58 | 0.236 µM
9 | COc1ccc(-c2nc3sccn3c2/C=C/C(=O)c2cc(OC)c(OC)c(OC)c2)cc1 | 12.9 µM | > 100 µM | > 28.7 µM | > 24.1 µM | > 28 µM | > 100 µM | 2.86 µM | 2.85 µM | 2.56 µM | 2.18 µM | 2.66 | 3.28 µM
10 | OCCN1CCCN(CCCN2c3ccccc3Sc3ccc(C(F)(F)F)cc32)CC1 | 17.8 µM | 3.33 µM | 20.4 µM | 5.89 µM | 14.7 µM | 6.15 µM | 5.61 µM | 1.67 µM | 5.93 µM | 2.04 µM | 3.57 | 2.31 µM
11 | C#CCN(CCCOc1ccc(Cl)cc1Cl)CCCSC(=O)CCCCCN1/C(=C\C=C2/CCCC(/C=C/C3=[N+](CCCCCC(=O)[O-])c4ccccc4C3(C)C)=C2Cl)C(C)(C)c2ccccc21 | 10.9 µM | 3.15 µM | 2.34 µM | 6.4 µM | 62.3 µM | 4.64 µM | 3.02 µM | 1.46 µM | 1.05 µM | 1.47 µM | 20.2 | 1.94 µM
12 | COc1ccc(N=C2C(=O)Nc3ccc(Br)cc32)cc1 | > 100 µM | 27.4 µM | – | > 100 µM | 87.9 µM | 35.3 µM | – | – | – | – | – | –
13 | c1ccc2[nH]c(-c3cscn3)nc2c1 | > 100 µM | > 100 µM | > 100 µM | > 100 µM | > 100 µM | > 100 µM | – | – | – | – | – | –
14 | CC(=O)OCCc1cc2ccccc2oc1=O | > 100 µM | > 100 µM | > 100 µM | > 100 µM | > 100 µM | > 100 µM | – | – | – | – | – | –
15 | COc1ccc2c(c1)CCC1C2CCC2(C)C(NC(=O)CCCCC3CCSS3)CCC12 (stereo unspecified) | > 100 µM | > 100 µM | > 100 µM | > 100 µM | > 100 µM | > 100 µM | > 100 µM | 9.3 µM | > 100 µM | > 100 µM | > 100 | 14.1 µM
16 | C=C(c1ccc(C(=O)NCCCn2ccnc2)cc1)c1cc2c(cc1C)C(C)(C)CCC2(C)C | > 62.5 µM | 16 µM | 14.9 µM | – | > 36.1 µM | 9.78 µM | 0.744 µM | 0.0734 µM | 3.14 µM | – | 0.0807 | 1.44 µM

Row | SMILES | TGI (DU-145 prostate) | TGI (MDA-MB-435) | TGI (BT-549 breast) | TGI (HS 578T breast) | TGI (NCI/ADR-RES ovarian) | TGI (MDA-MB-231 breast) | GI50 (DU-145 prostate) | GI50 (MDA-MB-435) | GI50 (BT-549 breast) | GI50 (HS 578T breast) | GI50 (NCI/ADR-RES ovarian) [µM] | GI50 (MDA-MB-231 breast)
17 | Nc1nc2c([nH]1)c1[nH]c3ccccc3c1c1[nH]c3ccccc3c21 | 26.4 µM | 22 µM | 25.5 µM | 53.9 µM | 45.1 µM | 16.9 µM | 13.5 µM | 9.73 µM | 12.1 µM | 20.4 µM | 18.9 | 4.39 µM
18 | O=C(Nc1ccc(-n2cc(-c3ccncc3)c(-c3ccc(Cl)c(O)c3)n2)cc1)c1ccc(Cl)c(Cl)c1 | > 100 µM | > 100 µM | > 100 µM | > 100 µM | > 100 µM | > 100 µM | > 100 µM | 2.73 µM | 5.04 µM | 3.83 µM | 4.91 | 1.17 µM
19 | Fc1nc(Sc2ncnc3nc[nH]c23)nc(-c2c3ccccc3c3sc4ccccc4n23)n1 | > 100 µM | > 100 µM | > 100 µM | > 100 µM | > 100 µM | > 100 µM | – | – | – | – | – | –
20 | CC[C@]1(O)C[C@@H]2CN(CCc3c([nH]c4ccccc34)[C@@](C(=O)OC)(c3cc4c(cc3OC)N(C)[C@H]3[C@@](O)(C(=O)OC)[C@H](OC(=O)CCCBr)[C@]5(CC)C=CCN6CC[C@]43[C@@H]65)C2)C1 | 1.43 µM | < 0.01 µM | 10.1 µM | – | > 100 µM | – | < 0.01 µM | < 0.01 µM | 0.0637 µM | < 0.0185 µM | 0.986 | –
21 | COC(=O)c1sc(=S)c2sc(C(=O)OC)c(C(=O)OC)c2c1C(=O)OC | > 100 µM | > 100 µM | > 100 µM | > 100 µM | > 100 µM | > 100 µM | 71.1 µM | 51.3 µM | 46.8 µM | 46.5 µM | 35.4 | 36.3 µM
22 | CNc1ccc(CSc2ccc(C)cc2)cc1 | > 100 µM | > 100 µM | 23 µM | > 100 µM | > 100 µM | 11.7 µM | 31 µM | 13.1 µM | 3.08 µM | 56 µM | 21.4 | 2.45 µM
23 | CC(C)(C)OC(=O)CC(S(=O)(=O)c1ccccc1)S(=O)(=O)c1ccccc1 | 28.8 µM | 26.7 µM | 25.2 µM | 81.4 µM | 37.8 µM | 25.7 µM | 15.2 µM | 13.8 µM | 12.4 µM | 22 µM | 17.4 | 12 µM
24 | CC(C)(C)c1cnc(CSc2cnc(NC(=O)C3CCNCC3)s2)o1 | 5.53 µM and > 10 µM | 0.905 µM and 1.07 µM | 2.83 µM and 2.45 µM | > 2.64 µM | > 100 µM | 5.34 µM and > 6.43 µM | 0.184 µM and 0.254 µM | 0.189 µM and 0.232 µM | 0.304 µM and 0.298 µM | 0.334 µM and 0.226 µM | 45.5 | 0.214 µM and 0.234 µM
25 | CN1CCC(C(=O)Nc2n[nH]c3nnc(-c4ccccc4)cc23)CC1 | > 25 µM | > 25 µM | > 25 µM | > 25 µM | > 25 µM | > 25 µM | > 25 µM | > 25 µM | > 25 µM | 16.5 µM | > 25 | > 25 µM
26 | Cc1cc(=O)[nH]c2c1C(=O)c1c(C)cc(=O)n(C)c1C2=O | 0.0479 µM | 0.0275 µM | 0.0519 µM | 0.154 µM | 0.259 µM | 0.789 µM | – | – | – | – | – | –
27 | Cc1nc2sc(C(=O)Nc3cccc(Cl)c3)c(N)c2cc1C(O)c1ccccc1 (stereo unspecified) | 17.2 µM | 0.465 µM | 35.6 µM | 4.89 µM | 13.1 µM | 16.9 µM | 0.923 µM | 0.203 µM | 6.13 µM | 0.351 µM | 0.929 | 2.52 µM
28 | CC1(C)N=C(N)N=C(N)N1c1ccc(CCCCCCc2ccc(S(=O)(=O)F)cc2)cc1 | 21.1 µM | 21.2 µM | – | 30.5 µM | 70.9 µM | 16.5 µM | – | – | – | – | – | –
29 | COc1cc2c(cc1OC)C(Sc1ccc(Cl)cc1)c1c(nc(N)c(C#N)c1N)O2 (stereo unspecified) | 3.05 µM | 2.85 µM | 2.83 µM | 6.43 µM | – | 2.76 µM | 1.67 µM | 1.42 µM | 1.49 µM | 1.98 µM | – | 1.37 µM
30 | COc1cc(COC(=O)N(C)[C@@H](Cc2ccccc2)C(=O)O)c([N+](=O)[O-])cc1OC | > 100 µM | > 100 µM | > 100 µM | > 100 µM | > 100 µM | – | – | – | – | – | – | –
31 | COc1cc([N+](=O)[O-])c(S(=O)(=O)O)cc1-[n+]1nc(C(=O)Nc2ccccc2)nn1-c1ccc([N+](=O)[O-])c(S(=O)(=O)[O-])c1 | > 100 µM | > 100 µM | – | > 100 µM | > 100 µM | > 100 µM | – | – | – | – | – | –
